Measured values published in patent publication US20230072683A1, “PYRIDO-PYRIMIDIN DERIVATIVES AND PHARMACEUTICAL COMPOSITION, FOR USE IN PREVENTING OR TREATING PI3 KINASE RELATED DISEASES, COMPRISING SAME AS ACTIVE INGREDIENT” (BORYUNG PHARMACEUTICAL CO., LTD, priority 2019, published 2023).
Where two headings read alike, the source gives them in different places.

Legend:
[1] = target: PI3K-δ (PI3K(p1108/p857) (h)) (Homo sapiens, UniProt O00329); test: Evaluation of inhibitory activity against PI3K-δ (HTRF kinase assay); assay type: biochemical; conditions: for inhibition at 0.1 µM: read-out: EXP_VALUE(% Inhibition) PI3K-δ 0.1 μM; for inhibition at 0.01 µM: compound concentration 0.01 μM, read-out: EXP_VALUE(% Inhibition) PI3K-δ 0.01 μM
In short: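 HTRF read-out (665/620 nm ratio ×10000) used Eu-labelled anti-GST, GST-tagged GRP1 PH domain and streptavidin-allophycocyanin after EDTA/PIP3 stop.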

[2] = target: DNA-PK(h) (Homo sapiens, UniProt P78527); test: Evaluation of inhibitory activity against DNA-PK (HTRF kinase assay, GST-cMyc-p53 substrate); assay type: biochemical; conditions: for inhibition at 0.1 µM: read-out: EXP_VALUE(% Inhibition) DNA-PK(h) 0.1 μM; for inhibition at 0.01 µM: compound concentration 0.01 μM, read-out: EXP_VALUE(% Inhibition) DNA-PK(h) 0.01 μM
In short: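 p53 Ser15 phosphorylation by human DNA-PK was measured by time-resolved FRET ratio (665/620 nm ×10000) using Eu-labelled anti-phospho-Ser15 and d2 anti-GST antibodies. Substrate GST-cMyc-p53 at 50 μM; Mg/ATP-initiated, 30 min at room temperature, EDTA stop.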

Sequence of PI3K-δ (PI3K(p1108/p857) (h)) (O00329 whole entry, the tested form may be a part): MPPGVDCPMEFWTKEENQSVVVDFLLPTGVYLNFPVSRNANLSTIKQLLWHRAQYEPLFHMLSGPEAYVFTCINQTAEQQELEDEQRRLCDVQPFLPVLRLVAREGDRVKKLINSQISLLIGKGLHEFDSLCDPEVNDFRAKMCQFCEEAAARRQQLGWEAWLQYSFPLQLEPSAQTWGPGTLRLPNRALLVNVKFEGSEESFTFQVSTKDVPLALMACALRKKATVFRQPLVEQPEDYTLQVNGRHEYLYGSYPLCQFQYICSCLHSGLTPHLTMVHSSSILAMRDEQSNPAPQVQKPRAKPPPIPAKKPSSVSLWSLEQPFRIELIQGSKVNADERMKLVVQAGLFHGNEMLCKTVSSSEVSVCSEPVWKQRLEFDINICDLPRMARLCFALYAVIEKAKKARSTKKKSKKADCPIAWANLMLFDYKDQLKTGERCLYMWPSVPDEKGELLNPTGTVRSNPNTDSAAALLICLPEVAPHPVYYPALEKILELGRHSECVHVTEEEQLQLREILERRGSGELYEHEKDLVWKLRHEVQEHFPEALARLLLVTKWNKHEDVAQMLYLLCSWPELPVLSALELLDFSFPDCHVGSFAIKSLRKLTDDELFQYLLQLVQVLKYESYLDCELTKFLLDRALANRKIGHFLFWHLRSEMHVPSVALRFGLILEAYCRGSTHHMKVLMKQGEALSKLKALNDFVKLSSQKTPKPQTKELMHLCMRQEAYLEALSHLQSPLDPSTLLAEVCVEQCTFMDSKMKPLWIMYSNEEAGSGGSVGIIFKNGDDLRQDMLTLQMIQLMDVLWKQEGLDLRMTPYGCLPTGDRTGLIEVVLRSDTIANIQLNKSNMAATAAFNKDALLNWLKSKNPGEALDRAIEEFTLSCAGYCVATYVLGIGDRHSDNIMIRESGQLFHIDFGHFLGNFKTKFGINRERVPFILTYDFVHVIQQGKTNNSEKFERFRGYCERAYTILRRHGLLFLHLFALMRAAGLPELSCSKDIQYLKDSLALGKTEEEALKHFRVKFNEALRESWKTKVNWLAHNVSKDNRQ
Sequence of PI3K-δ (PI3K(p1108/p857) (h)) (P27986 whole entry partner, the tested form may be a part): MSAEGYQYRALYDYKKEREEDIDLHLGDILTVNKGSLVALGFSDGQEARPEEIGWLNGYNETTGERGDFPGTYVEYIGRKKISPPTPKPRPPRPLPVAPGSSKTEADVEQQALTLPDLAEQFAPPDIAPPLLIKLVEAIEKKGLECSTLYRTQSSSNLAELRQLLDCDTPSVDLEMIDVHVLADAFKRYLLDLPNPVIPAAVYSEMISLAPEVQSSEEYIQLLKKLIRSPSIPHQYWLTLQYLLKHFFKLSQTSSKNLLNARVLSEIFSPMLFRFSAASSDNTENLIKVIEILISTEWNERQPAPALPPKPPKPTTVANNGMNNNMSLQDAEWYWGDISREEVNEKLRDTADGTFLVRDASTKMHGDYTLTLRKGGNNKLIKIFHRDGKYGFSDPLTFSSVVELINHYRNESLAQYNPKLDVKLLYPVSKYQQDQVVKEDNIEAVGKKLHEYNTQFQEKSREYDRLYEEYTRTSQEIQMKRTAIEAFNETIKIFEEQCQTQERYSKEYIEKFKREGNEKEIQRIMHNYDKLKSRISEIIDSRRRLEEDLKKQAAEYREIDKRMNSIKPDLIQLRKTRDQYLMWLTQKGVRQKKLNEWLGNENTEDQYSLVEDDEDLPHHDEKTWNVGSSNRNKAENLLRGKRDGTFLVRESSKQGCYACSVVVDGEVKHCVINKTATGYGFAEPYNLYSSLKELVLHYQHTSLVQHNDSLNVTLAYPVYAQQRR

Compound	inhibition at 0.1 µM ([1]; compound at 0.1 μM) [%]	inhibition at 0.1 µM ([2]; compound at 0.1 μM) [%]	inhibition at 0.01 µM [1] [%]	inhibition at 0.01 µM [2] [%]	inhibition at 0.1 µM ([1]; compound concentration 0.1 μM) [%]	inhibition at 0.1 µM ([2]; compound concentration 0.1 μM) [%]
CCc1ncc(-c2cccc3c(Cl)c([C@H](C)Nc4ncnc5[nH]ccc(=O)c45)n(-c4ccccc4)c(=O)c23)cn1 [Example 379, (S)-4-((1-(4-chloro-8-(2-ethylpyrimidin-5-yl)-1-oxo-2-phenyl-1,2-dihydroisoquinolin-3-yl)ethyl)amino)pyrido[2,3-d]pyrimidin-5(8H)-one]	80	74				
CC(C)Oc1cc(-c2cccc3c(Cl)c([C@H](C)Nc4ncnc5[nH]ccc(=O)c45)n(-c4ccccc4)c(=O)c23)ccn1 [Example 180, (S)-4-((1-(4-chloro-8-(2-isopropoxypyridin-4-yl)-1-oxo-2-phenyl-1,2-dihydroisoquinolin-3-yl)ethyl)amino)pyrido[2,3-d]pyrimidin-5(8H)-one]			83	59		
CC(C)S(=O)(=O)c1cccc2c(Cl)c([C@H](C)Nc3ncnc4[nH]ccc(=O)c34)n(-c3ccccc3)c(=O)c12 [Example 416, (S)-4-((1-(4-chloro-8-(isopropylsulfonyl)-1-oxo-2-phenyl-1,2-dihydroisoquinolin-3-yl)ethyl)amino)pyrido[2,3-d]pyrimidin-5(8H)-one]	13	52				
C[C@H](Nc1ncnc2[nH]ccc(=O)c12)c1c(Cl)c2cccc(-c3cnc(N(C)C)cn3)c2c(=O)n1-c1ccccc1 [Example 205, (S)-4-((1-(4-chloro-8-(5-(dimethylamino)pyrazin-2-yl)-1-oxo-2-phenyl-1,2-dihydroisoquinolin-3-yl)ethyl)amino)pyrido[2,3-d]pyrimidin-5(8H)-one]			49	47		
COc1cnc(-c2cccc3c(Cl)c([C@H](C)Nc4ncnc5[nH]ccc(=O)c45)n(-c4ccccc4)c(=O)c23)cn1 [Example 221, (S)-4-((1-(4-chloro-8-(5-methoxypyrazin-2-yl)-1-oxo-2-phenyl-1,2-dihydroisoquinolin-3-yl)ethyl)amino)pyrido[2,3-d]pyrimidin-5(8H)-one]			67	27		
C[C@H](Nc1ncnc2[nH]ccc(=O)c12)c1c(Cl)c2cccc(-c3cccc(CC#N)c3)c2c(=O)n1-c1ccccc1 [Example 91, (S)-2-(3-(4-chloro-1-oxo-3-(1-((5-oxo-5,8-dihydropyrido[2,3-d]pyrimidin-4-yl)amino)ethyl)-2-phenyl-1,2-dihydroisoquinolin-8-yl)phenyl)acetonitrile]			89	77	101	98
C[C@H](Nc1ncnc2[nH]ccc(=O)c12)c1c(Cl)c2cccc(-c3cnc4ccccc4c3)c2c(=O)n1-c1ccccc1 [Example 213, (S)-4-((1-(4-chloro-1-oxo-2-phenyl-8-(quinolin-3-yl)-1,2-dihydroisoquinolin-3-yl)ethyl)amino)pyrido[2,3-d]pyrimidin-5(8H)-one]			98	69		
C[C@H](Nc1ncnc2[nH]ccc(=O)c12)c1c(Cl)c2cccc(-c3ccc(C(N)=O)cc3)c2c(=O)n1-c1ccccc1 [Example 80, (S)-4-(4-chloro-1-oxo-3-(1-((5-oxo-5,8-dihydropyrido[2,3-d]pyrimidin-4-yl)amino)ethyl)-2-phenyl-1,2-dihydroisoquinolin-8-yl)benzamide]			110	90	101	106
C[C@H](Nc1ncnc2[nH]ccc(=O)c12)c1c(Cl)c2cccc(-c3cnc(OC(C)(C)C)cn3)c2c(=O)n1-c1ccccc1 [Example 206, (S)-4-((1-(8-(5-(tert-butoxy)pyrazin-2-yl)-4-chloro-1-oxo-2-phenyl-1,2-dihydroisoquinolin-3-yl)ethyl)amino)pyrido[2,3-d]pyrimidin-5(8H)-one]			45	29		
C[C@H](Nc1ncnc2[nH]ccc(=O)c12)c1c(Cl)c2cccc(-c3cnc(C(C)(C)C)nc3)c2c(=O)n1-c1ccccc1 [Example 208, (S)-4-((1-(8-(2-(tert-butyl)pyrimidin-5-yl)-4-chloro-1-oxo-2-phenyl-1,2-dihydroisoquinolin-3-yl)ethyl)amino)pyrido[2,3-d]pyrimidin-5(8H)-one]			68	58		
C[C@H](Nc1ncnc2[nH]ccc(=O)c12)c1c(Cl)c2cccc(C(C)(C)O)c2c(=O)n1-c1ccccc1 [Example 360, (S)-4-((1-(4-chloro-8-(2-hydroxypropan-2-yl)-1-oxo-2-phenyl-1,2-dihydroisoquinolin-3-yl)ethyl)amino)pyrido[2,3-d]pyrimidin-5(8H)-one]			6	-4		
C[C@H](Nc1ncnc2[nH]ccc(=O)c12)c1cc2cccc(-c3nc4ccccc4o3)c2c(=O)n1-c1ccccc1 [Example 318, (S)-4-((1-(8-(benzo[d]oxazol-2-yl)-1-oxo-2-phenyl-1,2-dihydroisoquinolin-3-yl)ethyl)amino)pyrido[2,3-d]pyrimidin-5(8H)-one]			23	19	65	35
C[C@H](Nc1ncnc2[nH]ccc(=O)c12)c1c(Cl)c2cccc(C(O)C(C)(C)C)c2c(=O)n1-c1ccccc1 (stereo partly drawn) [Example 357, 4-(((1S)-1-(4-chloro-8-(1-hydroxy-2,2-dimethylpropyl)-1-oxo-2-phenyl-1,2-dihydroisoquinolin-3-yl)ethyl)amino)pyrido[2,3-d]pyrimidin-5(8H)-one]			11	15		

The remaining lines, values ahead:

inhibition at 0.1 µM ([1]; compound at 0.1 μM) [%]	inhibition at 0.1 µM ([2]; compound at 0.1 μM) [%]	inhibition at 0.01 µM [1] [%]	inhibition at 0.01 µM [2] [%]	inhibition at 0.1 µM ([1]; compound concentration 0.1 μM) [%]	inhibition at 0.1 µM ([2]; compound concentration 0.1 μM) [%]	Compound
		69	65			Cc1csc(-c2cccc3c(Cl)c([C@H](C)Nc4ncnc5[nH]ccc(=O)c45)n(-c4ccccc4)c(=O)c23)c1 [Example 242, (S)-4-((1-(4-chloro-8-(4-methylthiophen-2-yl)-1-oxo-2-phenyl-1,2-dihydroisoquinolin-3-yl)ethyl)amino)pyrido[2,3-d]pyrimidin-5(8H)-one]
		89	69	93	97	Cc1nc2ccc(-c3cccc4c(Cl)c([C@H](C)Nc5ncnc6[nH]ccc(=O)c56)n(-c5ccccc5)c(=O)c34)cc2o1 [Example 22, (S)-4-((1-(4-chloro-8-(2-methylbenzo[d]oxazol-6-yl)-1-oxo-2-phenyl-1,2-dihydroisoquinolin-3-yl)ethyl)amino)pyrido[2,3-d]pyrimidin-5(8H)-one]
		19	4	55	23	Cc1ccc2c(c1)CN(c1cccc3c(Cl)c([C@H](C)Nc4ncnc5[nH]ccc(=O)c45)n(-c4ccccc4)c(=O)c13)CC2 [Example 329, (S)-4′-chloro-7-methyl-3′-(1-((5-oxo-5,8-dihydropyrido[2,3-d]pyrimidin-4-yl)amino)ethyl)-2′-phenyl-3,4-dihydro-1H-[2,8′-biisoquinolin]-1′(2′H)-one]
		68	79	95	97	C[C@H](Nc1ncnc2[nH]ccc(=O)c12)c1c(Cl)c2cccc(-c3ccc4[nH]cnc4c3)c2c(=O)n1-c1ccccc1 [Example 125, (S)-4-((1-(8-(1H-benzo[d]imidazol-5-yl)-4-chloro-1-oxo-2-phenyl-1,2-dihydroisoquinolin-3-yl)ethyl)amino)pyrido[2,3-d]pyrimidin-5(8H)-one]
		42	27			C[C@H](Nc1ncnc2[nH]ccc(=O)c12)c1c(Cl)c2cccc(-c3ccc(C4CC4)nc3)c2c(=O)n1-c1ccccc1 [Example 46, (S)-4-((1-(4-chloro-8-(6-cyclopropylpyridin-3-yl)-1-oxo-2-phenyl-1,2-dihydroisoquinolin-3-yl)ethyl)amino)pyrido[2,3-d]pyrimidin-5(8H)-one]
		38	31	83	79	C[C@H](Nc1ncnc2[nH]ccc(=O)c12)c1c(Cl)c2cccc(-c3ccc(N4CCCC4)cc3)c2c(=O)n1-c1ccccc1 [Example 87, (S)-4-((1-(4-chloro-1-oxo-2-phenyl-8-(4-(pyrrolidin-1-yl)phenyl)-1,2-dihydroisoquinolin-3-yl)ethyl)amino)pyrido[2,3-d]pyrimidin-5(8H)-one]
		44	36			C[C@H](Nc1ncnc2[nH]ccc(=O)c12)c1c(Cl)c2cccc(/C=N/O)c2c(=O)n1-c1ccccc1 [Example 273, (S,E)-4-chloro-1-oxo-3-(1-((5-oxo-5,8-dihydropyrido[2,3-d]pyrimidin-4-yl)amino)ethyl)-2-phenyl-1,2-dihydroisoquinoline-8-carbaldehyde oxime]
		72	59	103	92	C[C@H](Nc1ncnc2[nH]ccc(=O)c12)c1c(Cl)c2cccc(C3CC3)c2c(=O)n1-c1ccccc1 [Example 66, (S)-4-((1-(4-chloro-8-cyclopropyl-1-oxo-2-phenyl-1,2-dihydroisoquinolin-3-yl)ethyl)amino)pyrido[2,3-d]pyrimidin-5(8H)-one]
